In the NIST ThermoML archive (doi:10.1021/je200964m):
Values joined by “and” are separate entries in the source; they are usually repeats but may differ in a detail not shown here. Equal entries are not always repeated.

Experiments:
[1] = mn = molality of the nth substance listed, in mol/kg; details: 298.15 K, 100 kPa, Liquid, Vibrating tube method
[2] = molar heat capacity at constant pressure; mn = molality of the nth substance listed, in mol/kg; details: 298.15 K, 100 kPa, Liquid, Flow calorimetry

CC(=O)[O-].[Na+] [sodium ethanoate] + O
Details	mass density, [1]	molar heat capacity at constant pressure, [2] [J/K/mol]
m1 = 0.01999	997.898 kg/m3	75.34
m1 = 0.02177	997.982 kg/m3	75.33
m1 = 0.03988	998.731 kg/m3	75.34
m1 = 0.04259	998.856 kg/m3	75.33
m1 = 0.06003	999.574 kg/m3	75.33
m1 = 0.06004	999.577 kg/m3	75.33
m1 = 0.08011	1000.41 kg/m3	75.34
m1 = 0.08018	1000.42 kg/m3	75.34
m1 = 0.1002	1001.25 kg/m3 and 1001.25 kg/m3	75.34
m1 = 0.25	1007.38 kg/m3	75.37
m1 = 0.4956	1017.13 kg/m3	75.48
m1 = 0.4998	1017.29 kg/m3	75.48
m1 = 0.9999	1036.14 kg/m3	75.86
m1 = 1.997	1070.48 kg/m3	77.13
m1 = 2.003	1070.59 kg/m3	77.13
m1 = 4.532	1141.59 kg/m3	81.99

CCC(=O)[O-].[Na+] [sodium propanoate] + O
Details	mass density, [1] [kg/m3]	molar heat capacity at constant pressure, [2] [J/K/mol]
m1 = 0.01002	997.478	75.35
m1 = 0.02029	997.9	75.37
m1 = 0.04064	998.74	75.41
m1 = 0.06027	999.536	75.44
m1 = 0.08026	1000.38	75.47
m1 = 0.1002	1001.21	75.51
m1 = 0.1998	1005.24	75.69
m1 = 0.5005	1016.94	76.31
m1 = 0.7511	1026.37	76.87
m1 = 1	1035.33	77.48
m1 = 1.982	1067.68	80.19
m1 = 3.972	1119.87	86.51
m1 = 5.982	1158.32	92.7
m1 = 8.004	1185.89	98.52
